Test results from US7790884B2, “Acylaminopiperidine compound” (Astellas Pharma Inc., priority 2006, dated 2010).
Counter-ions that a name gives are not always drawn.

These compounds were tested against T1, human CCR4 (Homo sapiens, UniProt P51679) (assay: [35S]GTPγS binding test via CCR4 (human MDC-stimulated, human CCR4 expressing cell line membrane fraction)). Conditions: membrane fraction of human CCR4 expressing B300-16 cells, room temperature 1 hour 30 minutes, read-out: inhibitory activity value (IC50).
T1 construct: expressed in transfected cells; membrane fraction used
T1 sequence (P51679 1-360): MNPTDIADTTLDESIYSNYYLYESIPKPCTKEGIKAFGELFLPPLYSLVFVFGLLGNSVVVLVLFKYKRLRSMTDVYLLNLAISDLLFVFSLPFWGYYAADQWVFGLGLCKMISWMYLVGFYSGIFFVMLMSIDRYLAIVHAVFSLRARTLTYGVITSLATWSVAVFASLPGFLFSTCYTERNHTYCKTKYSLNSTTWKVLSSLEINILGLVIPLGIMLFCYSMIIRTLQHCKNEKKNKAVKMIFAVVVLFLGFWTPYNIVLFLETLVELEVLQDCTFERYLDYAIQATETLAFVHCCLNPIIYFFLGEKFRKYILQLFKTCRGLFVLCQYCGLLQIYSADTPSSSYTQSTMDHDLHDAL
Assay type: biochemical
Method: Action for [^35S]GTPγS Binding Test Via CCR4 (1) Preparation of Human CCR4 Expressing Cell Line A vector (contains a neomycin-resistance gene) in which human CCR4 gene was inserted into downstream of the EF-1α promoter was prepared and transfected into a mouse pre B cell line B300-16 cells by electroporation. These cells were cultured using a G-418-supplemented medium, and a single cell line capable of producing human CCR4 constantly and stably was obtained by the limiting dilution method. (2) Preparation of Human CCR4 Expressing Cell Line Membrane Fraction The human CCR4 expressing cells were recovered, washed with PBS and then suspended in a lysis buffer (10 mM HEPES pH 7.5, 2 mM EDTA, proteinase inhibitor). After allowing the suspension to stand on ice for 15 minutes, the cells were disintegrated using a homogenizer and centrifuged (2000 rpm, 10 min, 4° C.). The supernatant was further subjected to ultracentrifugation (22 K, 30 min, 4° C.), and then the pellet was suspended in PBS and used in the subsequent test. (3) GTPγS Binding Test In a reaction mixture liquid containing 20 mM of HEPES pH 7.05, 100 mM of NaCl, 5 mM of MgCl2, 2 μM of GDP, human MDC, […] of [^35S]GTPγS, 1 mg of wheat germ agglutinin SPA beads and 1 μg of the human CCR4 expressing cell line membrane fraction, respective concentration of the test compound was allowed to undergo the reaction at room temperature for 1 hour and 30 minutes, and the radioactivity was measured.

SMILES | IC50 [nM]
COc1cc2nc(N3CCC(N(C)C(=O)[C@@H]4CCCN4C)CC3)nc(Nc3ccc(Cl)cc3F)c2cc1OC [Example 1, N-(1-{4-[(4-chloro-2-fluorophenyl)amino]-6,7-dimethoxyquinazolin-2-yl}piperidin-4-yl)-N,1-dimethyl-L-prolinamide dihydrochloride] | ≤ 100
COc1cc2nc(N3CCC(N(C)C(=O)[C@H]4CCCN4)CC3)nc(Nc3ccc(Cl)cn3)c2cc1F [Example 74] | ≤ 100
COc1cc2nc(N3CCC(N(C)C(=O)[C@H]4CCCN4)CC3)nc(Nc3ncc(Cl)cc3Cl)c2cc1F [Example 75] | ≤ 100
COc1cc2nc(N3CCC(N(C)C(=O)[C@H]4CCCN4)CC3)nc(Nc3ccc(F)cn3)c2cc1F [Example 76] | ≤ 100
COc1cc2nc(N3CCC(N(C)C(=O)[C@H]4CCCN4CCO)CC3)nc(Nc3ccc(Cl)cc3F)c2cc1F [Example 77] | ≤ 100
COc1cc2nc(N3CCC(N(C)C(=O)[C@H]4CCCN4)CC3)nc(Nc3c(F)cc(Cl)cc3F)c2cc1F [Example 78] | ≤ 100
COc1cc2nc(N3CCC(N(C)C(=O)[C@H]4CCCN4)CC3)nc(NCc3ccc(Cl)cc3F)c2cc1F [Example 79] | ≤ 100
COc1cc2nc(N3CCC(N(C)C(=O)[C@H]4CCCN4CC(O)CO)CC3)nc(Nc3ccc(Cl)cc3F)c2cc1F (stereo partly shown) [Example 80] | ≤ 100
COc1cc2nc(N3CCC(N(C)C(=O)[C@@H]4CCCCN4)CC3)nc(Nc3ccc(Cl)cc3F)c2cc1OC [Example 86] | ≤ 100

Results, then the compound that gave them:

IC50 [nM] | SMILES
≤ 100 | COc1cc2nc(N3CCC(N(C)C(=O)[C@H]4CCCCN4)CC3)nc(Nc3ccc(Cl)cc3F)c2cc1OC [Example 87]
≤ 100 | COc1cc2nc(N3CCC(N(C(=O)[C@H]4CCCCN4)C4CC4)CC3)nc(Nc3ccc(Cl)cc3F)c2cc1OC [Example 90]
≤ 100 | COc1cc2nc(N3CCC(N(C(=O)[C@H]4CCCCN4)C4CCC4)CC3)nc(Nc3ccc(Cl)cc3F)c2cc1OC [Example 91]
≤ 100 | CN(C(=O)[C@H]1CCCN1)C1CCN(c2nc(Nc3ccc(Cl)cc3F)c3cnn(C)c3n2)CC1 [Example 95]
≤ 100 | CCn1ncc2c(Nc3ccc(Cl)cc3F)nc(N3CCC(N(C)C(=O)[C@H]4CCCN4)CC3)nc21 [Example 99]
≤ 100 | CCn1ncc2c(Nc3ccc(Cl)cc3F)nc(N3CCC(N(C)C(=O)[C@H]4CCCN4C)CC3)nc21 [Example 100]
≤ 100 | CN(C(=O)[C@@H]1CCCN1)C1CCN(c2nc(Nc3ccc(Cl)cc3F)c3cnn(CC(F)(F)F)c3n2)CC1 [Example 101]
≤ 100 | CN(C(=O)[C@H]1CCCN1)C1CCN(c2nc(Nc3ccc(Cl)cc3F)c3cnn(CC(F)(F)F)c3n2)CC1 [Example 102]
≤ 100 | CN(C(=O)[C@@H]1CCCN1C)C1CCN(c2nc(Nc3ccc(Cl)cc3F)c3cnn(CC(F)(F)F)c3n2)CC1 [Example 103]
≤ 100 | CN(C(=O)[C@H]1CCCN1C)C1CCN(c2nc(Nc3ccc(Cl)cc3F)c3cnn(CC(F)(F)F)c3n2)CC1 [Example 104]
≤ 100 | CCn1ncc2c(NCc3ccc(Cl)cc3F)nc(N3CCC(N(C)C(=O)[C@H]4CCCN4)CC3)nc21 [Example 105]
≤ 100 | CN(C(=O)[C@H]1CCCN1)C1CCN(c2nc(NCc3ccc(Cl)cc3F)c3cnn(CC(F)(F)F)c3n2)CC1 [Example 106]

Each compound was assayed on Balb/c mice, oxazolone-induced contact dermatitis (assay: Mouse oxazolone-induced contact dermatitis (ear swelling)). Conditions: 30 mg/kg oral administration, swelling 20 hours after oxazolone application.
Assay type: in vivo
Method: 2. Action Upon Mouse Oxazolone-Induced Contact Dermatitis
Balb/c mice (6 to 10 weeks of age, female, Charles River Japan) were sensitized by applying 150 μl of 3% oxazolone/ethanol solution (Sigma Aldrich Japan) to the abdominal part. On the 6th day after the sensitization, 10 μl of 1% oxazolone/ethanol solution was applied to both sides of the right ear. The test drug was administered in 12 hours after the application of the oxazolone solution (test drug administration group), and the solvent alone used in dissolving the test drug was administered to the control group. Thickness of the right auricle was measured before the application and 20 hours thereafter using a […] (Mitsutoyo), and the swelling (thickness increment=measured value after 20 hours−measured value before application) was calculated. The inhibition ratio was calculated by the following formula, by regarding a group to which the oxazolone solution was applied without sensitization as the normal group. In this connection, the above-mentioned test was carried out by 5 animals per group. Inhibition ratio=(swelling of control group−swelling of test drug administration group)×100/(swelling of control group−swelling of normal group)

SMILES | inhibitory activity (inhibition of right auricle swelling)
COc1cc2nc(N3CCC(N(C)C(=O)[C@@H]4CCCN4C)CC3)nc(Nc3ccc(Cl)cc3F)c2cc1OC [Example 1, N-(1-{4-[(4-chloro-2-fluorophenyl)amino]-6,7-dimethoxyquinazolin-2-yl}piperidin-4-yl)-N,1-dimethyl-L-prolinamide dihydrochloride] | good inhibitory activity
